Molecular target: T1, factor D (Homo sapiens, UniProt P00746)
T1 construct: made in house; host or cells: E. coli
Assay: factor D inhibition assay of Biological Example 2
Assay type: biochemical

T1 sequence (P00746 26-253): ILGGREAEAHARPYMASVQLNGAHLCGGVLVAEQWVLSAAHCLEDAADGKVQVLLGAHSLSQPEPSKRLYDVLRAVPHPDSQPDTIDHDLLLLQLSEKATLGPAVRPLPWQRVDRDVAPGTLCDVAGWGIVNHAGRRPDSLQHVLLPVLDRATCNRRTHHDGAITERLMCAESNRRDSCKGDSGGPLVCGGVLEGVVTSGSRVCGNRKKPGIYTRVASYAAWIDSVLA

N[C@H](CO)c1cccc(-c2cc(COc3ccccc3CC(=O)O)cc(NCC3CC3)c2)c1 [Example 128-C, (S)-2-(2-((3′-(1-Amino-2-hydroxyethyl)-5-((cyclopropylmethyl)amino)-[1,1′-biphenyl]-3-yl)methoxy)phenyl)acetic acid]
IC50: 3 nM

CCNc1cc(COc2ccccc2CC(=O)O)cc(-c2cccc([C@H](N)CO)c2)c1 [Example 129, (S)-2-(2-((3′-(1-Amino-2-hydroxyethyl)-5-(ethylamino)-[1,1′-biphenyl]-3-yl)methoxy)phenyl)acetic acid]
IC50: 9 nM

CNc1cc(COc2ccccc2CC(=O)O)cc(-c2cccc([C@H](N)CO)c2)c1 [Example 131, (S)-2-(2-((3′-(1-Amino-2-hydroxyethyl)-5-(methylamino)-[1,1′-biphenyl]-3-yl)methoxy)phenyl)acetic acid]
IC50: 18 nM

CN(C)c1cc(COc2ccccc2CC(=O)O)cc(-c2cccc([C@H](N)CO)c2)c1 [Example 132, (S)-2-(2-((3′-(1-Amino-2-hydroxyethyl)-5-(dimethylamino)-[1,1′-biphenyl]-3-yl)methoxy)phenyl)acetic acid]
IC50: 18 nM

Nc1cc(COc2ccccc2CC(=O)O)cc(-c2cccc([C@H](N)CO)c2)c1 [Example 133, (S)-2-(2-((5-amino-3′-(1-amino-2-hydroxyethyl)-[1,1′-biphenyl]-3-yl)methoxy)phenyl)acetic acid]
IC50: 9 nM

COc1cc(COc2ccccc2CC(=O)O)cc(-c2cccc(CN)c2)c1 [Example 134, 2-(2-((3′-(Aminomethyl)-5-methoxy-[1,1′-biphenyl]-3-yl)methoxy)phenyl)acetic acid]
IC50: 13 nM

NCc1cccc(-c2cc(COc3ccccc3CC(=O)O)cc(OC[C@H]3CCCO3)c2)c1 [Example 135, (R)-2-(2-((3′-(Aminomethyl)-5-((tetrahydrofuran-2-yl)methoxy)-[1,1′-biphenyl]-3-yl)methoxy)phenyl)acetic acid]
IC50: 5 nM

NCc1cccc(-c2cc(COc3ccccc3CC(=O)O)cc(OCC3CC3)c2)c1 [Example 136, 2-(2-((3′-(Aminomethyl)-5-(cyclopropylmethoxy)-[1,1′-biphenyl]-3-yl)methoxy)phenyl)acetic acid]
IC50: 5 nM

NCc1cccc(-c2cc(COc3ccccc3CC(=O)O)ccc2F)c1F [Example 137, 2-(2-((3′-(Aminomethyl)-2′,6-difluoro-[1,1′-biphenyl]-3-yl)methoxy)phenyl)acetic acid]
IC50: 21 nM

NCc1cc(-c2cc(COc3ccccc3CC(=O)O)cc(OC[C@H]3CCCO3)c2)ccn1 [Example 138-A]
IC50: 2 nM

NCc1ccnc(-c2cc(COc3ccccc3CC(=O)O)cc(OC[C@H]3CCCO3)c2)c1 [Example 138-B]
IC50: 88 nM

NCc1cncc(-c2cc(COc3ccccc3CC(=O)O)cc(OC[C@H]3CCCO3)c2)c1 [Example 138-C]
IC50: 1520 nM

NCc1cc(-c2cccc(COc3ccccc3CC(=O)O)c2)ccc1F [Example 138-D]
IC50: 223 nM

NCc1ccc(F)c(-c2cccc(COc3ccccc3CC(=O)O)c2)c1 [Example 138-E]
IC50: 1990 nM

O=C(O)Cc1ccccc1OCc1cccc(-c2cccc(-c3ncc[nH]3)c2)c1 [Example 138-F]
IC50: 2190 nM

NCc1cc(-c2cccc(COc3ccccc3CC(=O)O)c2)ccn1 [Example 138-G]
IC50: 12 nM

NCc1cccc(-c2cccc(COc3ccccc3CC(=O)O)c2)c1F [Example 138-H]
IC50: 5 nM

C[C@@H](N)c1cccc(-c2cccc(COc3ccccc3CC(=O)O)c2)n1 [Example 138-I]
IC50: 301 nM

O=C(O)Cc1ccccc1OCc1cccc(-c2cccc(C3CCCN3)c2)c1 (stereo not shown) [Example 138-J]
IC50: 2870 nM

N[C@H](CO)c1cccc(-c2cccc(COc3ccccc3CC(=O)O)c2)n1 [Example 138-K]
IC50: 45 nM

C[C@@H](N)c1cccc(-c2cccc(COc3ccccc3CC(=O)O)c2)c1F [Example 138-L]
IC50: 99 nM

NCc1cccc(-c2cc(COc3ccccc3CC(=O)O)cc(OC[C@H]3CCCO3)c2)n1 [Example 138-M]
IC50: 5 nM

Reference: US20160145247A1, “Aminomethyl-Biaryl Derivatives Complement Factor D inhibitors and uses thereof” (NOVARTIS AG, priority 2013, published 2016)
